{
  "source": "paper PMC6547740",
  "about": "“Potent and specific MTH1 inhibitors targeting gastric cancer” (Cell Death & Disease, 2019)",
  "key": {"MGC-803 cells [1]": {"tested_on": "MGC-803 cells", "assay": "Colony formation assay, MGC-803", "type": "cell-based, human", "conditions": "MGC-803, 7 days treatment, compared with DMSO or MI-929", "experimental": "(§1) The day before treatment, cells were seeded into six-well plates at a concentration of 1 × 10^3 cells per well, and then the media were replaced with fresh media containing serial concentrations of candidate compounds. After 7 days of treatment, the cells were fixed with 75% ethanol, stained with 0.1% crystal violet solution and captured by the microscopy (Leica). After that, the crystal violet crystals were dissolved by adding methanol. The absorbance at 595 nm was measured by a BioTek micro plate reader. In the end, the data were analyzed using the GraphPad Prism 5 software."}, "HGC-27 cells [2]": {"tested_on": "HGC-27 cells", "assay": "Colony formation assay, HGC-27", "type": "cell-based, human", "conditions": "HGC-27, 7 days treatment, compared with DMSO or MI-929", "experimental": "as §1"}, "MTH1 [3]": {"molecular_target": "T1, MTH1 (Homo sapiens, UniProt P36639)", "assay": "MTH1 recombinant protein activity / inhibitor screening (malachite green)", "type": "biochemical", "parameters": "His-tag; made in house; host or cells: E. coli BL21(DE3)", "conditions": "5 nM recombinant MTH1, dGTP substrate, absorbance 630 nm; read-out: IC50 (MTH1 inhibition)", "experimental": "On the basis of the ability of MTH1 in converting dGTP to dGMP and pyrophosphate, and the latter can then be hydrolyzed to […] by inorganic pyrophosphatase, the MTH1 activity was designed to measure the product of […], after its reaction with malachite green and ammonium molybdate(Fig. 2l), the green associated complex was measured at 630 nm by PerkinElmer Envision microplate reader.\nFirstly, the assay buffer (100 mM Tris-acetate at pH 8.0, 40 mM NaCl, 10 mM Mg-acetate, 0.005% Tween 20 and 1 mM DTT) was added into a 96-well plate. Then, 5 nM recombinant human MTH1, […] dGTP and 0.2U/ml […] were added in sequence. After 60 min reaction, the mixture of 0.45 mg/mL malachite green and 4.2% ammonium molybdate in proportion of 3:1 were added. Then, the plates were incubated and shaken at room temperature for another 60 min. The absorbance was measured at 630 nm using the PerkinElmer Envision micro plate reader."}, "MTH1 [4]": {"molecular_target": "T1, MTH1", "assay": "Cellular thermal shift assay (CETSA), MTH1", "type": "binding", "parameters": "endogenous in cells; host or cells: MGC-803 (human gastric cancer cell line)", "conditions": "MGC-803 cells, 50 µM compound, heated 10 min from 43 to 61 °C, western blot", "experimental": "Cellular thermal shift assay (CETSA), also known as the target engagement assay was one-way to detect the intracellular interaction ability of compounds with its specific target. Firstly, cells were seeded into T75 culture flasks and cultured overnight. Then, the cells were treated with cell media containing 1‰ DMSO as blank control and candidate compounds for 3–5 h. Next, the cells were collected by centrifugation and resuspended by PBS, then the cells were aliquoted into 7 PCR tubes and heated using PCR instrument for 10 min from 43 to 61 °C. After that, cells were lysed using liquid nitrogen and three repeated cycles of freeze-thawing. Then, samples were centrifuged at 12,000 × g for 20 min at 4 °C. Supernatants were denatured at 100 °C for 10 min and kept at −20 °C until Western Blot analysis."}, "EC109 cells": {"tested_on": "EC109 cells", "assay": "MTT cell viability, EC109", "type": "cell-based", "conditions": "Homo sapiens, ECa-109, esophageal cancer cell line, 72 h", "experimental": "(§2) The cell viability was determined by 3-(4,5-dimethylthiazol-2-yl)-2,5-diphenyltetrazolium bromide (MTT) assay, according to the manufacturer’s instructions. 1 day before treatment, cells were seeded into 96-well plates at a concentration of 2–5 × 10^3 cells per well, followed by treatment with fresh medium containing serial dilutions of candidate compounds for 48 or 72 h, 20 μL of MTT solution (5 mg/mL in PBS) was then added to each well. After treatment, the plates were incubated at 37 °C for another 4 h. Subsequently, the MTT solution was removed and 150 μL of DMSO was added to each well for 10 min, and then the plates were shaken to dissolve the dark blue crystal (formazan), the absorbance was detected at 570 nm using a BioTek microplate reader. The data were analyzed using SPSS 20 software."}, "MKN45 cells": {"tested_on": "MKN45 cells", "assay": "MTT cell viability, MKN45", "type": "cell-based", "conditions": "Homo sapiens, MKN-45, gastric cancer cell line, 72 h", "experimental": "as §2"}, "MGC-803 cells [5]": {"tested_on": "MGC-803 cells", "assay": "MTT cell viability, MGC-803", "type": "cell-based", "conditions": "Homo sapiens, gastric cancer cell line, 72 h", "experimental": "as §2"}, "L02 cells": {"tested_on": "L02 cells", "assay": "MTT cell viability, L02", "type": "cell-based", "conditions": "Homo sapiens, normal liver cell line, 72 h", "experimental": "as §2"}, "B16-F10 cells": {"tested_on": "B16-F10 cells", "assay": "MTT cell viability, B16-F10", "type": "cell-based", "conditions": "Mus musculus, 72 h", "experimental": "as §2"}, "HepG2 cells": {"tested_on": "HepG2 cells", "assay": "MTT cell viability, HepG2", "type": "cell-based", "conditions": "Homo sapiens, liver cancer cell line, 72 h", "experimental": "as §2"}, "SGC-7901 cells": {"tested_on": "SGC-7901 cells", "assay": "MTT cell viability, SGC-7901", "type": "cell-based", "conditions": "Homo sapiens, gastric cancer cell line, 72 h", "experimental": "as §2"}, "ZIP177 cells": {"tested_on": "ZIP177 cells", "assay": "MTT cell viability, ZIP177", "type": "cell-based", "conditions": "Homo sapiens, liver cancer cell line, 72 h", "experimental": "as §2"}, "HL-7702 cells": {"tested_on": "HL-7702 cells", "assay": "MTT cell viability, HL-7702", "type": "cell-based", "conditions": "Homo sapiens, L02, normal liver cell line, 72 h", "experimental": "as §2"}, "pc9 cells": {"tested_on": "pc9 cells", "assay": "MTT cell viability, pc9", "type": "cell-based", "conditions": "Homo sapiens, PC-9, 72 h", "experimental": "as §2"}, "SMMC-7721 cells": {"tested_on": "SMMC-7721 cells", "assay": "MTT cell viability, SMMC-7721", "type": "cell-based", "conditions": "Homo sapiens, liver cancer cell line, 72 h", "experimental": "as §2"}, "KYSE-450 cells": {"tested_on": "KYSE-450 cells", "assay": "MTT cell viability, KYSE-450", "type": "cell-based", "conditions": "Homo sapiens, esophageal cancer cell line, 72 h", "experimental": "as §2"}, "EC9706 cells": {"tested_on": "EC9706 cells", "assay": "MTT cell viability, EC9706", "type": "cell-based", "conditions": "Homo sapiens, esophageal cancer cell line, 72 h", "experimental": "as §2"}, "H1975 cells": {"tested_on": "H1975 cells", "assay": "MTT cell viability, H1975", "type": "cell-based", "conditions": "Homo sapiens, NCI-H1975, 72 h", "experimental": "as §2"}, "TE-1 cells": {"tested_on": "TE-1 cells", "assay": "MTT cell viability, TE-1", "type": "cell-based", "conditions": "Homo sapiens, 72 h", "experimental": "as §2"}, "Het-1A cells": {"tested_on": "Het-1A cells", "assay": "MTT cell viability, Het-1A", "type": "cell-based", "conditions": "Homo sapiens, normal esophageal epithelial cell line, 72 h", "experimental": "as §2"}, "HGC-27 cells [6]": {"tested_on": "HGC-27 cells", "assay": "MTT cell viability, HGC-27", "type": "cell-based", "conditions": "Homo sapiens, gastric cancer cell line, 72 h", "experimental": "as §2"}, "GES-1 cells": {"tested_on": "GES-1 cells", "assay": "MTT cell viability, GES-1", "type": "cell-based", "conditions": "Homo sapiens, GES1, normal gastric epithelial cell line, 72 h", "experimental": "as §2"}, "MCF-7 cells": {"tested_on": "MCF-7 cells", "assay": "MTT cell viability, MCF-7", "type": "cell-based", "conditions": "Homo sapiens, MCF7, breast cancer cell line, 72 h", "experimental": "as §2"}},
  "data": [
    {"smiles": "C[C@H](Oc1cc(-c2cnn(C3CCNCC3)c2)cnc1N)c1c(Cl)ccc(F)c1Cl", "note": "[(S)-crizotinib]", "values": [
      {"measurement": "colony formation", "setting": "MGC-803 cells [1]", "result": "smaller and fewer colonies"},
      {"measurement": "colony formation", "setting": "HGC-27 cells [2]", "result": "smaller and fewer colonies"}
    ]},
    {"smiles": "Cc1ccc(Nc2nc(SCc3cn(CC(=O)NC(=O)Nc4ccccn4)nn3)nc(-c3ccc(Br)cc3)c2C#N)cc1", "note": "[MI-401, 2-(4-((4-(4-bromophenyl)-5-cyano-6-(p-tolylamino)pyrimidin-2-yl)thiomethyl)-1H-1,2,3-triazol-1-yl)-N-(pyridin-2-ylcarbamoyl)acetamide]", "values": [
      {"measurement": "melting point", "result": "155 to 156", "unit": "°C"},
      {"measurement": "IC50", "setting": "MTH1 [3]", "result": "0.4613 ± 0.00267", "unit": "µM"},
      {"measurement": "temperature of MTH1 degradation", "setting": "MTH1 [4]", "result": 49, "unit": "°C"}
    ]},
    {"smiles": "COc1ccccc1NC(=O)NC(=O)CSC(=S)N1CCCC1", "note": "[MI-929]", "values": [
      {"measurement": "IC50", "setting": "EC109 cells", "result": "> 50", "unit": "µM"},
      {"measurement": "IC50", "setting": "MKN45 cells", "result": "> 50", "unit": "µM"},
      {"measurement": "IC50", "setting": "MGC-803 cells [5]", "result": "> 50", "unit": "µM"},
      {"measurement": "IC50", "setting": "L02 cells", "result": "> 50", "unit": "µM"},
      {"measurement": "IC50", "setting": "B16-F10 cells", "result": "> 50", "unit": "µM"},
      {"measurement": "IC50", "setting": "HepG2 cells", "result": "> 50", "unit": "µM"},
      {"measurement": "IC50", "setting": "SGC-7901 cells", "result": "> 50", "unit": "µM"},
      {"measurement": "IC50", "setting": "ZIP177 cells", "result": "> 50", "unit": "µM"},
      {"measurement": "IC50", "setting": "HL-7702 cells", "result": "> 50", "unit": "µM"},
      {"measurement": "IC50", "setting": "pc9 cells", "result": "> 50", "unit": "µM"},
      {"measurement": "IC50", "setting": "MTH1 [3]", "result": "> 50", "unit": "µM"},
      {"measurement": "IC50", "setting": "SMMC-7721 cells", "result": "> 50", "unit": "µM"},
      {"measurement": "IC50", "setting": "KYSE-450 cells", "result": "> 50", "unit": "µM"},
      {"measurement": "IC50", "setting": "EC9706 cells", "result": "> 50", "unit": "µM"},
      {"measurement": "IC50", "setting": "H1975 cells", "result": "> 50", "unit": "µM"},
      {"measurement": "IC50", "setting": "TE-1 cells", "result": "> 50", "unit": "µM"},
      {"measurement": "IC50", "setting": "Het-1A cells", "result": "> 50", "unit": "µM"},
      {"measurement": "IC50", "setting": "HGC-27 cells [6]", "result": "> 50", "unit": "µM"},
      {"measurement": "IC50", "setting": "GES-1 cells", "result": "> 50", "unit": "µM"},
      {"measurement": "IC50", "setting": "MCF-7 cells", "result": "> 50", "unit": "µM"},
      {"measurement": "temperature of MTH1 degradation", "setting": "MTH1 [4]", "result": 49, "unit": "°C"}
    ]},
    {"smiles": "Nc1nc(NC2CC2)cc(-c2cccc(Cl)c2Cl)n1", "note": "[TH588]", "values": [
      {"measurement": "colony formation", "setting": "MGC-803 cells [1]", "result": "smaller and fewer colonies"},
      {"measurement": "colony formation", "setting": "HGC-27 cells [2]", "result": "smaller and fewer colonies"}
    ]}
  ]
}
